Measured values from US6420330B1, “Use of quaternary carboxylic acid alkanolamine ester salts as microbicide agents” (Cognis Deutschland GmbH, priority 1997, dated 2002).

Legend:
Experiment in all cases: DGHM suspension test, microbicidal activity
Format in all cases: cell-based
[1] = system: Candida albicans ATCC 10231
Experimental: (§1) The microbicidal activity of the quanterary carboxylic acid alkanolamine ester salts used in accordance with the invention was tested against the following selected test germs:
(§2) The effectiveness of the compound to be tested was determined by the suspension test in accordance with the guidelines of the Deutsche Gesellschaft for Hygiene and Mikrobiologie (DGHM). Test solutions containing quatemary carboxylic acid alkanolamine ester salts in the quantities shown in the Tables of 50, 100, 200, 400 and 800 mg/l were prepared using water with a hardness of 17° dH and optionally isopropanol.
(§3) At room temperatures, quantities of 0.1 ml test germ suspension were pipetted into test tubes containing 10 ml of the test solutions described above and mixed. After various contact times of 5, 15, 30 and 60 minutes, 1 ml of material was taken from the test tubes by pipette and transferred to 9 ml inactivator solution (inactivators: 3.0% Tween, 0.3% lecithin, 0.1% histidine). After in activation for at least 5 and at most 30 minutes, the living germ count was determined by plating out onto casein peptone-soybean flour peptone (CaSo)-agar plates. Using a spiral plater, the inactivating mixture was directly plated out onto CaSo-agar. The samples were incubated for 24 to 72 hours at 37° C. and macroscopically evaluated for growth. The destruction time or the residual germ count was determined in this way. The germ count of an unchallenged water control is related to the germ count of the inactivated test solution taking the dilution into account. The higher the value, the better the microbicidal effect. The symbol < means that the logarithmic reductuon factor is below the indicated value or, in the case of the symbol >, above the indicated value. The abbreviation CU stands for “concentration used”.

[2] = system: Staphylococcus aureus ATCC 6538
Experimental: as §1, §2, §3

[3] = system: Pseudomonas aeruginosa ATCC 15442
Experimental: as §1, §2, §3

[4] = CU 50 mg/l, contact time 5 mins.
[5] = CU 50 mg/l, contact time 15 mins.
[6] = CU 50 mg/l, contact time 30 mins.
[7] = CU 50 mg/l, contact time 60 mins.
[8] = CU 100 mg/l, contact time 5 mins.
[9] = CU 100 mg/l, contact time 15 mins.
[10] = CU 100 mg/l, contact time 30 mins.
[11] = CU 100 mg/l, contact time 60 mins.
[12] = CU 200 mg/l, contact time 5 mins.
[13] = CU 200 mg/l, contact time 15 mins.
[14] = CU 200 mg/l, contact time 30 mins.
[15] = CU 200 mg/l, contact time 60 mins.
[16] = CU 400 mg/l, contact time 5 mins.
[17] = CU 400 mg/l, contact time 15 mins.
[18] = CU 400 mg/l, contact time 30 mins.
[19] = CU 400 mg/l, contact time 60 mins.
[20] = CU 800 mg/l, contact time 5 mins.
[21] = CU 800 mg/l, contact time 15 mins.
[22] = CU 800 mg/l, contact time 30 mins.
[23] = CU 800 mg/l, contact time 60 mins.

## CCCCCCCC(=O)OCC[N+](C)(CCO)CCOC(=O)CCCCCCC.COS(=O)(=O)[O-] [Example 7, Methyl triethanolammonium dicaprylic acid ester methosulfate]
[1]; [4]
  logarithmic reduction factor: >4.31
[1]; [5]
  logarithmic reduction factor: >4.18
[1]; [6]
  logarithmic reduction factor: >4.16
[1]; [7]
  logarithmic reduction factor: >4.27
[1]; [8]
  logarithmic reduction factor: >4.31
[1]; [9]
  logarithmic reduction factor: >4.18
[1]; [10]
  logarithmic reduction factor: >4.16
[1]; [11]
  logarithmic reduction factor: >4.27
[1]; [12]
  logarithmic reduction factor: >4.31
[1]; [13]
  logarithmic reduction factor: >4.18
[1]; [14]
  logarithmic reduction factor: >4.16
[1]; [15]
  logarithmic reduction factor: >4.27
[1]; [16]
  logarithmic reduction factor: >4.31
[1]; [17]
  logarithmic reduction factor: >4.18
[1]; [18]
  logarithmic reduction factor: >4.16
[1]; [19]
  logarithmic reduction factor: >4.27
[1]; [20]
  logarithmic reduction factor: >4.31
[1]; [21]
  logarithmic reduction factor: >4.18
[1]; [22]
  logarithmic reduction factor: >4.16
[1]; [23]
  logarithmic reduction factor: >4.27
[2]; [4]
  logarithmic reduction factor: >5.75
[2]; [5]
  logarithmic reduction factor: >5.53
[2]; [6]
  logarithmic reduction factor: >5.42
[2]; [7]
  logarithmic reduction factor: >5.69
[2]; [8]
  logarithmic reduction factor: >5.75
[2]; [9]
  logarithmic reduction factor: >5.53
[2]; [10]
  logarithmic reduction factor: >5.42
[2]; [11]
  logarithmic reduction factor: >5.69
[2]; [12]
  logarithmic reduction factor: >5.75
[2]; [13]
  logarithmic reduction factor: >5.53
[2]; [14]
  logarithmic reduction factor: >5.42
[2]; [15]
  logarithmic reduction factor: >5.69
[2]; [16]
  logarithmic reduction factor: >5.75
[2]; [17]
  logarithmic reduction factor: >5.53
[2]; [18]
  logarithmic reduction factor: >5.42
[2]; [19]
  logarithmic reduction factor: >5.69
[2]; [20]
  logarithmic reduction factor: >5.75
[2]; [21]
  logarithmic reduction factor: >5.53
[2]; [22]
  logarithmic reduction factor: >5.42
[2]; [23]
  logarithmic reduction factor: >5.69
[3]; [4]
  logarithmic reduction factor: <1.77
[3]; [5]
  logarithmic reduction factor: <1.72
[3]; [6]
  logarithmic reduction factor: <1.76
[3]; [7]
  logarithmic reduction factor: 3.65
[3]; [8]
  logarithmic reduction factor: 3.64
[3]; [9]
  logarithmic reduction factor: >5.72
[3]; [10]
  logarithmic reduction factor: >5.76
[3]; [11]
  logarithmic reduction factor: >5.86
[3]; [12]
  logarithmic reduction factor: 4.59
[3]; [13]
  logarithmic reduction factor: >5.72
[3]; [14]
  logarithmic reduction factor: 5.76
[3]; [15]
  logarithmic reduction factor: >5.86
[3]; [16]
  logarithmic reduction factor: 5.32
[3]; [17]
  logarithmic reduction factor: >5.72
[3]; [18]
  logarithmic reduction factor: >5.76
[3]; [19]
  logarithmic reduction factor: >5.86
[3]; [20]
  logarithmic reduction factor: >5.77
[3]; [21]
  logarithmic reduction factor: >5.72
[3]; [22]
  logarithmic reduction factor: >5.76
[3]; [23]
  logarithmic reduction factor: >5.86

## CCCCCCCCCC(=O)OCC[N+](C)(C)CCOC(=O)CCCCCCCCC.COS(=O)(=O)[O-] [Example 10, dimethyl diethanolammonium dicapric acid ester methosulfate]
[1]; [4]
  logarithmic reduction factor: 2.87
[1]; [5]
  logarithmic reduction factor: >4.84
[1]; [6]
  logarithmic reduction factor: >4.89
[1]; [7]
  logarithmic reduction factor: >4.80
[1]; [8]
  logarithmic reduction factor: 4.27
[1]; [9]
  logarithmic reduction factor: >4.84
[1]; [10]
  logarithmic reduction factor: >4.89
[1]; [11]
  logarithmic reduction factor: >4.80
[2]; [8]
  logarithmic reduction factor: >5.56
[2]; [9]
  logarithmic reduction factor: >5.55
[2]; [10]
  logarithmic reduction factor: >5.72
[2]; [11]
  logarithmic reduction factor: >5.69
[2]; [12]
  logarithmic reduction factor: >5.56
[2]; [13]
  logarithmic reduction factor: >5.55
[2]; [14]
  logarithmic reduction factor: >5.72
[2]; [15]
  logarithmic reduction factor: >5.69
[2]; [16]
  logarithmic reduction factor: >5.56
[2]; [17]
  logarithmic reduction factor: >5.55
[2]; [18]
  logarithmic reduction factor: >5.72
[2]; [19]
  logarithmic reduction factor: >5.69
[3]; [8]
  logarithmic reduction factor: 3.11
[3]; [9]
  logarithmic reduction factor: 3.48
[3]; [10]
  logarithmic reduction factor: 3.95
[3]; [11]
  logarithmic reduction factor: 4.84
[3]; [12]
  logarithmic reduction factor: 3.54
[3]; [13]
  logarithmic reduction factor: 4.51
[3]; [14]
  logarithmic reduction factor: 5.50
[3]; [15]
  logarithmic reduction factor: 5.44
[3]; [16]
  logarithmic reduction factor: 4.31
[3]; [17]
  logarithmic reduction factor: 5.04
[3]; [18]
  logarithmic reduction factor: 5.64
[3]; [19]
  logarithmic reduction factor: >5.79

## trimethyl ethanolammonium coconut fatty acid ester methosulfate [Example 4]
[1]; [4]
  logarithmic reduction factor: <0.80
[1]; [5]
  logarithmic reduction factor: <0.79
[1]; [6]
  logarithmic reduction factor: 0.91
[1]; [7]
  logarithmic reduction factor: 1.40
[1]; [8]
  logarithmic reduction factor: 1.19
[1]; [9]
  logarithmic reduction factor: 3.01
[1]; [10]
  logarithmic reduction factor: >4.80
[1]; [11]
  logarithmic reduction factor: >5.05
[1]; [12]
  logarithmic reduction factor: 3.43
[1]; [13]
  logarithmic reduction factor: >4.79
[1]; [14]
  logarithmic reduction factor: >4.80
[1]; [15]
  logarithmic reduction factor: >5.05
[1]; [16]
  logarithmic reduction factor: >4.80
[1]; [17]
  logarithmic reduction factor: >4.79
[1]; [18]
  logarithmic reduction factor: >4.80
[1]; [19]
  logarithmic reduction factor: >5.05
[1]; [20]
  logarithmic reduction factor: >4.80
[1]; [21]
  logarithmic reduction factor: >4.79
[1]; [22]
  logarithmic reduction factor: >4.80
[1]; [23]
  logarithmic reduction factor: >5.05
[2]; [4]
  logarithmic reduction factor: <1.51
[2]; [5]
  logarithmic reduction factor: <1.36
[2]; [6]
  logarithmic reduction factor: <1.38
[2]; [7]
  logarithmic reduction factor: 1.94
[2]; [8]
  logarithmic reduction factor: <1.51
[2]; [9]
  logarithmic reduction factor: 1.78
[2]; [10]
  logarithmic reduction factor: 3.03
[2]; [11]
  logarithmic reduction factor: 4.02
[2]; [12]
  logarithmic reduction factor: <1.51
[2]; [13]
  logarithmic reduction factor: 3.4
[2]; [14]
  logarithmic reduction factor: 4.38
[2]; [15]
  logarithmic reduction factor: >5.26
[2]; [16]
  logarithmic reduction factor: 2.33
[2]; [17]
  logarithmic reduction factor: 4.14
[2]; [18]
  logarithmic reduction factor: >5.38
[2]; [19]
  logarithmic reduction factor: >5.26
[2]; [20]
  logarithmic reduction factor: 3.12
[2]; [21]
  logarithmic reduction factor: >5.36
[2]; [22]
  logarithmic reduction factor: >5.38
[2]; [23]
  logarithmic reduction factor: >5.26
[3]; [4]
  logarithmic reduction factor: <1.51
[3]; [5]
  logarithmic reduction factor: <1.66
[3]; [6]
  logarithmic reduction factor: <1.46
[3]; [7]
  logarithmic reduction factor: <1.47
[3]; [8]
  logarithmic reduction factor: <1.51
[3]; [9]
  logarithmic reduction factor: <1.66
[3]; [10]
  logarithmic reduction factor: <1.46
[3]; [11]
  logarithmic reduction factor: <1.47
[3]; [12]
  logarithmic reduction factor: <1.51
[3]; [13]
  logarithmic reduction factor: <1.66
[3]; [14]
  logarithmic reduction factor: <1.46
[3]; [15]
  logarithmic reduction factor: <3.35
[3]; [16]
  logarithmic reduction factor: <1.51
[3]; [17]
  logarithmic reduction factor: 3.9
[3]; [18]
  logarithmic reduction factor: >5.66
[3]; [19]
  logarithmic reduction factor: >5.47
[3]; [20]
  logarithmic reduction factor: 4.02
[3]; [21]
  logarithmic reduction factor: >5.66
[3]; [22]
  logarithmic reduction factor: >5.66
[3]; [23]
  logarithmic reduction factor: >5.47
